The values below come from PubChem BioAssay (NCI).

Assay in all cases: NCI-60 cell line screen, 48 h
Test [1] has as its system EKVX NSCLC.
Test [2] deals with HCT-116 colon.
Test [3] has as its system HL-60(TB) leukemia.
Test [4] concerns HOP-92 NSCLC.
Test [5] has as its system NCI-H522 lung.
Test [6] relates to OVCAR-4 ovarian.
In test [7] the test system is OVCAR-8 ovarian.
In test [8] the test system is SF-295 CNS.
Test [9] concerns SNB-75 CNS.
Test [10] concerns UACC-257 melanoma.

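48-hour exposure; five concentrations; linearly interpolated endpoints. Abbreviation: GI50, concentration required for 50% inhibition of growth. At the TGI there is no net growth.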

For `CSc1nnc(CCC(=O)Nc2c(C)cccc2C)o1`, the TGI in test [1], in test [2], in [3], in test [4], in test [5] and in [6] was greater than 100 µM throughout. Besides, the TGI in [7], in test [8], in [9] and in test [10] was greater than 100 µM throughout.

Take `O=C1/C(=C/c2ccccc2)CN(C(=O)CCN2CCOCC2)C/C1=C\c1ccccc1`: the TGI in test [1] came to 26.7 µM; in test [2], 2.04 µM; in [3] it was 6.51 µM; in test [4] it was 22.2 µM; in test [5], 4.46 µM; in test [6], 8.38 µM. The TGI in test [7] came out at 10.3 µM; in test [8], 6.86 µM; in test [9], 20 µM; in test [10], 4.99 µM.

Take `O=C1C=CC(=O)C2=C1[C@@H](O)C1CC=CC3C(=O)O[C@@H]2C31` (stereo partly specified): the TGI is greater than 100 µM in test [1]; 39.7 µM in test [2]; 40.4 µM in test [3]; 45.4 µM in test [4]; 34.8 µM in [5]; 17.7 µM in test [6]. The TGI was greater than 71.3 µM in test [7], greater than 100 µM in [8], 50.7 µM in test [9] and greater than 57.5 µM in test [10].

As to `CSC1=C(N)C(=O)c2[nH]cc(CO)c2C1=N`, the GI50 in test [1] was 0.26 µM; in test [2] it was 0.256 µM; in [3] it was 0.222 µM; in test [4] it was 0.499 µM; in test [5] it was 0.155 µM; in [6], 0.123 µM. For the same compound, the GI50 was 0.275 µM in [7], 0.159 µM in test [8], 0.165 µM in test [9] and 0.134 µM in test [10]. Moreover, the TGI in test [1] came out at 1.22 µM; in test [2] it was 0.666 µM; in [3], 0.514 µM; in test [4] it was 2.3 µM; in test [5], 0.364 µM; in test [6], 0.249 µM. Further, the TGI in test [7] was 0.948 µM; in test [8], 0.309 µM; in test [9], 0.307 µM; in test [10], 0.267 µM.

As to `COc1cc2c(cc1OC)[C@H](C)N1CCc3cc(OC)c(OC)cc3[C@@H]1C2`, the TGI in test [1], in test [2], in test [3], in [4], in test [5] and in [6] was greater than 100 µM each time. Further, the TGI in test [7], in test [8], in test [9] and in [10] was greater than 100 µM in each case.

As to `COc1ccc(C/C(C)=C(/c2ccc(OCCN3CCCCC3)cc2)c2ccc(OC(=O)NCc3ccccc3)cc2)cc1`, the GI50 in [1] was 0.37 µM; in [2], 0.33 µM; in [3] it was 0.391 µM; in test [4], 0.258 µM; in test [5], 0.49 µM; in test [6], 0.393 µM. Besides, the GI50 in test [7] was 0.472 µM; in [8], 0.436 µM; in [9] it was 0.355 µM; in [10], 0.472 µM. Moreover, the TGI in [1] stood at 0.773 µM; in test [2], 0.698 µM; in [3], 0.895 µM; in [4], 0.575 µM; in test [5] it was 0.928 µM; in [6] it was 0.764 µM. The TGI in test [7] was 0.937 µM; in test [8], 0.802 µM; in [9] it was 0.716 µM; in test [10], 0.917 µM.

On to `COc1cccc(-c2c[nH]c3c(N/N=C/c4ccncc4)ncnc23)c1`, for which the GI50 was 7.06 µM in test [1]; 1.24 µM in test [2]; 1.7 µM in test [3]; 4.96 µM in [4]; 2.25 µM in [5]; 2.65 µM in [6]. The GI50 is 2.57 µM in [7], 3.5 µM in test [8], 1.47 µM in test [9] and 6.02 µM in [10]. For the same compound, the TGI was found to be 24.1 µM in [1]; 5.36 µM in test [2]; 7.35 µM in test [3]; 19.2 µM in test [4]; 7.78 µM in test [5]; 11.1 µM in [6]. The TGI in [7] is 11.8 µM; in [8] it was greater than 25 µM; in [9], 6.78 µM; in test [10], 17.5 µM.

With `COc1ccc2c(c1)NC1=C(C(=O)OC1)C2c1cc(OC)c2c(c1)OCO2` (stereo unspecified), the TGI in [1] was greater than 100 µM; in [3], greater than 100 µM; in test [4], greater than 87.9 µM; in test [5], 0.0251 µM; in test [6], greater than 100 µM; in [7], greater than 100 µM. Also, the TGI in test [8] was greater than 100 µM; in test [9], 43.3 µM; in test [10] it was greater than 100 µM. In addition, the GI50 in test [2] was less than 0.0182 µM; in [3], 0.0209 µM; in test [4], 1.36 µM; in [6], 0.0257 µM; in [7] it was less than 0.0185 µM; in [8] it was less than 0.0155 µM. In addition, in test [9], the GI50 was 0.0426 µM.

For the compound `O=C1CCCCC1S(=O)(=O)c1ccccc1` (stereo unspecified), the TGI in test [1], in test [2], in test [3], in [4], in [5] and in test [6] was greater than 100 µM throughout. The TGI in test [7], in test [8], in test [9] and in test [10] was greater than 100 µM throughout.

Take `CCCCCCCCCCCCCCCC(=O)OCC1OC(n2cc(F)c(=O)[nH]c2=O)C(N)C(O)C1O` (stereo unspecified): the TGI was found to be 35.6 µM in test [1]; 34.4 µM in test [2]; 37.4 µM in test [3]; 38.9 µM in [4]; 31.7 µM in test [5]; 31.2 µM in [6]. Further, the TGI in test [7] was 37.1 µM; in [8], 31.1 µM; in test [9] it was 38.6 µM; in test [10] it was 40.7 µM.
